# Measurements as given in PMC10235067, “Increased renal elimination of endogenous and synthetic pyrimidine nucleosides in concentrative nucleoside transporter 1 deficient mice” (Nature Communications, 2023).
# “And” between values parts separate entries of the source, which are not always exact repeats. Equal entries are not always repeated. Structures can show the parent of a compound that is named as a salt.
# Experiment: Gemcitabine plasma pharmacokinetics in Slc28a1+/+ and Slc28a1-/- mice
# Details: Gemcitabine in plasma, iv gemcitabine 50mg/kg, per mouse
# Protocol: To collect blood, a 5 mm lancet was used to apply pressure to the submandibular vein and release blood flow. For retro-orbital collection, mice were anesthetized with 3% isoflurane in oxygen, and the blood was collected directly into heparinized capillary tubes by applying slight pressure to the medial canthus of the eye. Cardiac puncture was performed as the final collection method by first euthanizing the mice in a CO2 chamber and immediately performing posterior cardiac puncture by inserting a 27 G needle with a 1 ml syringe attachment into the heart. Once blood collection was completed, gentle pressure was applied to the blood collection area using gauze to stop the bleeding. Thirty microliters of blood was collected into heparinized capillary tubes at each time point, transferred into prelabeled 0.5 ml microcentrifuge tubes containing THU (10 µg/ml; final concentration), and immediately processed and snap-frozen following procedures outlined in the “Gemcitabine plasma pharmacokinetics” methods section.
# Gemcitabine and dFdU plasma concentrations were measured using a modified version of our previously published UHPLC–MS/MS method for nucleosides[74] […] Noncompartmental pharmacokinetic parameters (Cmax, Tmax, AUC, CL, T1/2, etc.) were calculated using WinNonlin 6.2 software (Pharsight; Mountain View, CA). […] The Cmax and Tmax were obtained from the concentration-time curve. The AUC was calculated according to the linear trapezoidal rule up to the last time point with a measurable concentration of the analyte of interest. Significant differences between Slc28a1^+/+ and Slc28a1^−/− mouse pharmacokinetic parameters (p < 0.05) were evaluated with an unpaired two-sided Student’s t-test.
# The resulting supernatant was evaporated to dryness in a SpeedVac, and the remaining residue was reconstituted in mobile phase A for subsequent analysis. […] Subsequent processing was identical to that for the plasma and urine samples.
# Briefly, the analysis was performed on an Imtakt Schzero SM C18 column, 2.1 × 100 mm, 3.0 µm particle size. The eluents used consisted of mobile phase A consisting of 50 mM ammonium formate:50 mM ammonium hydroxide (9:1, v/v) (pH = 8.6) and mobile phase B consisting of 50 mM ammonium formate:50 mM ammonium hydroxide (9:1, v/v):ACN (80:20, v/v) (pH = 8.6). […] The injection volume was 10 μL, and the autosampler temperature was set at 4 °C throughout the analysis.
# The Waters Triple Quadrupole Mass Spectrometer with an ESI source was operated in negative and positive ion mode at a spray voltage of 2.5 kV, capillary temperature of 150 °C, and vaporizer temperature of 250 °C. Compound optimization was performed manually using the MassLynx 4.1 Software AutoTune Wizard (Waters, Milford, MA) by infusion into the mass spectrometer using a T-connector. […] Analyze concentrations were determined and analyzed using MassLynx Mass Spectrometry Software (Waters; Milford, MA).
structure (smiles),measurement,setting,value
"Nc1ccn([C@@H]2O[C@H](CO)[C@@H](O)C2(F)F)c(=O)n1 [dFdC, Gemcitabine hydrochloride, reference compound]",MRTINF_obs,KO mice,141.603 min and 225.512 min and 8.15 min and 26.989 min and 6.943 min and 27.8346 min
same,MRTINF_pred,KO mice,141.879 min and 225.692 min and 7.911 min and 21.8034 min and 6.786 min and 27.3569 min
same,MRTlast,KO mice,12.4456 min and 11.7249 min and 7.547 min and 19.1465 min and 6.655 min and 8.568 min
same,Tlast,KO mice,120 min and 60 min and 240 min
same,Tmax,KO mice,5 min
same,Vss_obs,KO mice,154.537 L/kg and 168.308 L/kg and 10.4759 L/kg and 25.6879 L/kg and 5.23323 L/kg and 17.3159 L/kg
same,Vss_pred,KO mice,154.735 L/kg and 168.388 L/kg and 10.2063 L/kg and 21.1478 L/kg and 5.12762 L/kg and 17.0456 L/kg
same,Vz_obs,KO mice,477.366 L/kg and 498.742 L/kg and 15.7693 L/kg and 56.1887 L/kg and 7.97936 L/kg and 130.407 L/kg
same,Vz_pred,KO mice,477.049 L/kg and 498.582 L/kg and 15.8281 L/kg and 57.2597 L/kg and 7.99903 L/kg and 130.613 L/kg
same,AUCINF_D_obs,WT mice,1342.37 kg·ng·min/mL/mg and 2003.95 kg·ng·min/mL/mg and 1404.16 kg·ng·min/mL/mg and 1832.16 kg·ng·min/mL/mg and 1677.59 kg·ng·min/mL/mg and 1947.35 kg·ng·min/mL/mg
same,AUCINF_D_pred,WT mice,1351.51 kg·ng·min/mL/mg and 2009.55 kg·ng·min/mL/mg and 1397.88 kg·ng·min/mL/mg and 1826.34 kg·ng·min/mL/mg and 1669.05 kg·ng·min/mL/mg and 1936.73 kg·ng·min/mL/mg
same,AUCINF_obs,WT mice,100198 ng·min/mL and 70207.8 ng·min/mL and 91608.1 ng·min/mL and 83879.3 ng·min/mL and 97367.3 ng·min/mL
same,AUCINF_pred,WT mice,100478 ng·min/mL and 69893.8 ng·min/mL and 91317 ng·min/mL and 83452.5 ng·min/mL and 96836.3 ng·min/mL
same,AUC_%Back_Ext_obs,WT mice,12.8582% and 20.8763% and 29.2762% and 32.2576% and 32.4305% and 25.1142%
same,AUC_%Back_Ext_pred,WT mice,12.7713% and 20.8181% and 29.4077% and 32.3604% and 32.5963% and 25.252%
same,AUC_%Extrap_obs,WT mice,9.702% and 18.5437% and 0.7839% and 0.5327% and 0.8134% and 0.9221%
same,AUC_%Extrap_pred,WT mice,10.3129% and 18.7708% and 0.3382% and 0.2157% and 0.3062% and 0.3788%
same,AUCall,WT mice,81617.2 ng·min/mL and 71149.3 ng·min/mL and 92539.9 ng·min/mL and 85061.6 ng·min/mL and 98831 ng·min/mL
same,AUClast,WT mice,81617.2 ng·min/mL and 69657.4 ng·min/mL and 91120.1 ng·min/mL and 83197 ng·min/mL and 96469.4 ng·min/mL
same,AUClast_D,WT mice,1212.13 kg·ng·min/mL/mg and 1632.34 kg·ng·min/mL/mg and 1393.15 kg·ng·min/mL/mg and 1822.4 kg·ng·min/mL/mg and 1663.94 kg·ng·min/mL/mg and 1929.39 kg·ng·min/mL/mg
same,AUMCINF_obs,WT mice,5069956 min*min*ng/mL and 20471433 min*min*ng/mL and 1064873 min*min*ng/mL and 1254821 min*min*ng/mL and 1108567 min*min*ng/mL and 1728699 min*min*ng/mL
same,AUMCINF_pred,WT mice,5292862 min*min*ng/mL and 20755711 min*min*ng/mL and 1020250 min*min*ng/mL and 1213897 min*min*ng/mL and 1047980 min*min*ng/mL and 1652866 min*min*ng/mL
same,AUMC_%Extrap_obs,WT mice,62.651% and 92.1199% and 7.346% and 5.469% and 8.737% and 7.417%
same,AUMC_%Extrap_pred,WT mice,64.2239% and 92.2278% and 3.293% and 2.282% and 3.461% and 3.17%
same,AUMClast,WT mice,1893578 min*min*ng/mL and 1613171 min*min*ng/mL and 986649 min*min*ng/mL and 1186197 min*min*ng/mL and 1011712 min*min*ng/mL and 1600474 min*min*ng/mL
same,C0,WT mice,1738.74 ng/mL and 4426.87 ng/mL and 4597.66 ng/mL and 7279.69 ng/mL and 6681.38 ng/mL and 5877.84 ng/mL
same,Cl_obs,WT mice,499.014 mL/min/kg and 712.172 mL/min/kg and 545.803 mL/min/kg and 596.095 mL/min/kg and 513.519 mL/min/kg
same,Cl_pred,WT mice,739.914 mL/min/kg and 497.623 mL/min/kg and 715.371 mL/min/kg and 547.543 mL/min/kg and 599.143 mL/min/kg and 516.335 mL/min/kg
same,Clast,WT mice,26.282 ng/mL and 23.9761 ng/mL and 24.8646 ng/mL and 23.6637 ng/mL and 31.0775 ng/mL and 39.3598 ng/mL
same,Clast_pred,WT mice,28.1263 ng/mL and 24.3375 ng/mL and 10.6806 ng/mL and 9.552 ng/mL and 11.6372 ng/mL and 16.0822 ng/mL
same,Cmax_D,WT mice,35.2165 kg·ng/mL/mg and 78.8031 kg·ng/mL/mg and 72.4804 kg·ng/mL/mg and 90.8107 kg·ng/mL/mg and 83.992 kg·ng/mL/mg and 78.0677 kg·ng/mL/mg
same,HL_Lambda_z,WT mice,171.744 min and 537.158 min and 15.3422 min and 14.2945 min and 15.2178 min and 15.8118 min
same,Lambda_z,WT mice,0.004036 min⁻¹ and 0.00129 min⁻¹ and 0.04518 min⁻¹ and 0.04849 min⁻¹ and 0.04555 min⁻¹ and 0.04384 min⁻¹
same,MRTINF_obs,WT mice,75.5375 min and 204.311 min and 15.1675 min and 13.6977 min and 13.2162 min and 17.7544 min
same,MRTINF_pred,WT mice,78.3253 min and 206.57 min and 14.5971 min and 13.2932 min and 12.5578 min and 17.0687 min
